We go through 25 compounds from patent US5846942A, “Cholecystokinin antagonists, their preparation and therapeutic use” (Warner-Lambert Company, priority 1996, dated 1998).

SMILES strings stand for the structures.

The test deals with T1, Central CCK Receptors (Mus musculus, UniProt P56481).
T1 construct: from tissue; host or cells: cerebral cortex membranes of male CFLP mice (30-40 g)
T1 sequence (P56481 1-453): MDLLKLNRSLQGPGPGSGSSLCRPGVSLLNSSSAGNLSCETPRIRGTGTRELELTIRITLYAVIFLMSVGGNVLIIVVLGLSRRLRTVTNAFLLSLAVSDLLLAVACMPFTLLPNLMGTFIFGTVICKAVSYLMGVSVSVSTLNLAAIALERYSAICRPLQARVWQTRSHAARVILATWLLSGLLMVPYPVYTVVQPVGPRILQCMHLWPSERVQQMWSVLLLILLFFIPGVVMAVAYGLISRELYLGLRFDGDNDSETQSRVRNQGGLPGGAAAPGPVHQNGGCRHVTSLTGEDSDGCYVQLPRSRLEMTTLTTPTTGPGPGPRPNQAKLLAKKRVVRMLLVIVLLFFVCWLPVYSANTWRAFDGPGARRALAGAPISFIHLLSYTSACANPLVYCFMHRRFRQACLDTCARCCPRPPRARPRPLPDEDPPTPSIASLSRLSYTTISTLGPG
Description: Binding to central CCK receptors, displacement of tritiated pentagastrin from cerebral cortical membranes of male CFLP mice. The conditions noted are these: cerebral cortexes taken from male CFLP mice; 2 nM tritiated-pentagastrin. More on the design: species or system mouse (male CFLP). As for the experimental part: The biological activity of compounds of the present invention was evaluated employing an initial screening test which rapidly and accurately measured the binding of the tested compound to known CCK receptor sites. […] (See Hays et al, Neuropeptides 1:53-62, 1980; and Satuer et al, Science 208:1155-1156, 1980).
In this screening test, the cerebral cortices taken from male CFLP mice weighing between 30-40 g were dissected on ice, weighed, and homogenized in 10 volumes of 50 mM Tris-HCl buffer (pH 7.4 at 0°-4° C.). The resulting suspension was centrifuged, the supernate was discarded, and the pellet was washed by resuspension in Tris-HCl buffer followed by recentrifugation. The final pellet was resuspended in 20 volumes of […] Hepes buffer (pH 7.2 at 23° C.) containing 130 mM NaCl, […] KCl, […] MgCl2, […] EDTA, 5 mg/mL bovine albumin, and bacitracin (0.25 mg/mL).
In saturation studies, cerebral cortical membranes were incubated at 23° C. for 120 minutes in a final volume of 500 μL of Hepes incubation buffer (pH 7.2) together with […] tritiated-pentagastrin (Amersham International, England).
In the displacement experiments, membranes were incubated with a single concentration (2 nM) of ligand, together with increasing concentrations (10^-11 to […]) of competitive test compound. In each case, the nonspecific binding was defined as that persisting in the presence of the unlabeled octapeptide CCK26-33 (10^-6 M)
Following incubation, radioactivity bound to membranes was separated from that free in solution by rapid filtration through Whatman GF/B filters and washed three times with 4 mL of ice cold Tris-HCl buffer. Filters from samples incubated with tritiated-pentagastrin were placed in polyethylene vials with 4 mL of scintillation cocktail, and the radioactivity was estimated by liquid scintillation spectrometry (efficiency 47-52%).
Saturation curves for specific tritiated- pentagastrin binding to mouse cortical membranes were analyzed by the methods of Scatchard (Ann. New York Acad. Sci. 51:660-672, 1949, and Hill (J. Physiol. 40:IV-VIII, 1910), to provide estimates for the maximum number of binding sites (Bmax) and the equilibrium dissociation constant (Ka).
In displacement experiments, inhibition curves were analyzed by either logit-log plots or the iterative curve fitting computer program ALLFIT (DeLean, Munson and Redbard, 1978) to provide estimates of the IC50 and nH (apparent Hill coefficient) values).
The inhibition constant (Ki) of the test compound was then calculated according to the Cheng-Prusoff equation: [formula] where [L] is the concentration of radiolabel and Ka is the equilibrium dissociation constant.

For the compound `C[C@](Cc1c[nH]c2ccccc12)(NC(=O)OC1C2CC3CC(C2)CC1C3)C(=O)NCCC(=O)N[C@H](Cc1ccccc1)C(=O)O` (stereo partly drawn) [Example 32, D-Phenylalanine, N-[N-[α-methyl-N-[(tricyclo-[3.3.1.1^3,7]dec-2-yloxy)carbonyl]-D-tryptophyl]-β-alanyl]-], the Ki was 103 nM. With `C[C@](CNC(=O)Cc1ccccc1)(Cc1c[nH]c2ccccc12)NC(=O)OC1C2CC3CC(C2)CC1C3` (stereo partly drawn) [Example 22, Carbamic acid, [1-(1H-indol-3-ylmethyl)-1-methyl-2-[(2-phenylacetyl)amino]ethyl]-, tricyclo[3.3.1.1^3,7]-dec-2-yl ester. (R)-] the figure was 704 nM; with `C[C@](Cc1c[nH]c2ccccc12)(NC(=O)OC1C2CC3CC(C2)CC1C3)C(=O)NCCC(=O)N[C@@H](Cc1ccccc1)C(=O)OCc1ccccc1` (stereo partly drawn) [Example 30, L-Phenylalanine,N-[N-[α-methyl-N-[(tricyclo[3.3.1.1^3,7]dec-2-yloxy)carbonyl]-d-tryotoohyl]-β-alanyl]-phenylmethyl ester], over 10000 nM. With `CNC(=O)C1CCCCC1NC(=O)[C@@](C)(Cc1c[nH]c2ccccc12)NC(=O)OC1C2CC3CC(C2)CC1C3` (stereo partly shown) [Example 123] the figure was 17 nM. With `CC(=O)OC[C@H](Cc1ccccc1)NC[C@@](C)(Cc1c[nH]c2ccccc12)NC(=O)OC1C2CC3CC(C2)CC1C3` (relative stereo) [Example 7, [R-(R*,S*)]-β-[[2-(1H-indol-3-ylmethyl)-2-[[tricyclo-[3.3.1.1^3,7]dec-2-yloxvcarbonyl]amino]propyl]amino]-benzenepropanol acetate] the figure was 374 nM. For the compound `C[C@](Cc1c[nH]c2ccccc12)(NC(=O)OC1C2CC3CC(C2)CC1C3)C(=O)NC1CCCCC1C#N` (stereo partly shown) [Example 116, Carbamic acid [2-[(2-cyanocyclohexyl)amino]-1-(1H-indol-3-ylmethyl)-1-methyl-2-oxoethyl]-1H-tricyclo-[3.3.1.1^3,7]dec-2-yl ester], affinity was put at a Ki of 3.5 nM. Next, `O=C(N[C@H](CN[C@H](CO)Cc1ccccc1)Cc1c[nH]c2ccccc12)OC1C2CC3CC(C2)CC1C3` (stereo partly shown) [Example 2]: 1120 nM; `C[C@](Cc1c[nH]c2ccccc12)(NC(=O)OC1C2CC3CC(C2)CC1C3)C(=O)NCCC(=O)N[C@@H](Cc1ccccc1)C(N)=O` (stereo partly drawn) [Example 26, L-Phenylalaninamide, α-methyl-N-[(tricyclo [3.3.1.1^3,7]-dec-2-yloxy)carbonyl]-D-tryptophvl-β-alanyl-]: 92 nM; `C[C@](Cc1c[nH]c2ccccc12)(NC(=O)OC1C2CC3CC(C2)CC1C3)C(=S)NCCc1ccccc1` (stereo partly shown) [Example 9]: 808 nM. Next, `C[C@](CNC(=O)CCCc1ccccc1)(Cc1c[nH]c2ccccc12)NC(=O)OC1C2CC3CC(C2)CC1C3` (stereo partly drawn) [Example 19, Carbamic acid, [1-(1H-indol-3-ylmethyl)-1-methyl-2-[(1-oxo-4-phenylbutyl)amino]ethyl]-, tricyclo-[3.3.1.1^3,7]dec-2-yl ester (R)-]: 353 nM; `CC(Cc1c[nH]c2ccccc12)(NC(=O)OC1C2CC3CC(C2)CC1C3)C(=O)NC1CCCCC1C(=O)O` (stereo not shown) [Example 121, 2-[[3-(1H-indol-3-yl)-2-methyl-1-oxo-2-[[(tricyclo-[3.3.1.1^3,7]dec-2-yloxy)carbonyl]amino]propyl]amino]cyclohexanecarboxylic acid]: 2 nM; `C[C@](CC(=O)N[C@H](C(=O)O)c1ccccc1)(Cc1c[nH]c2ccccc12)NC(=O)OC1C2CC3CC(C2)CC1C3` (stereo partly drawn) [Example 90, N-[D-3-(1H-indol-3-ylmethyl)-3-methyl-N-[(tricyclo [3.3.1.1^3,7]dec-2-yloxy)carbonyl]-β-alanyl]-L-2-phenylglycine]: 942 nM. With `C[C@](Cc1c[nH]c2ccccc12)(NC(=O)OC1C2CC3CC(C2)CC1C3)C(=O)N[C@H](C(=O)O)c1ccccc1` (stereo partly drawn) [Example 91, [R-(R*,S)]-α-[[3-(1H-indol-3-yl)-2-methyl-1-oxo-2-[[(tricyclo[3.3.1.1^3,7]dec-2-yloxy)carbonyl]amino]proipyl]amino]benzeneacetic acid, [R-(R*,S*)]-] the figure was 110 nM.

Compound `C[C@@](Cc1c[nH]c2ccccc12)(NC(=O)OC1C2CC3CC(C2)CC1C3)C(=O)NCCC(=O)N[C@H](Cc1ccccc1)C(N)=O` (stereo partly shown) [Example 28] came in with a Ki of 1400 nM.

In turn, `C[C@](Cc1c[nH]c2ccccc12)(NC(=O)OC1C2CC3CC(C2)CC1C3)C(=O)NCCC(=O)N[C@@H](Cc1ccccc1)C(=O)O` (stereo partly drawn) [Example 33, S-Phenylalanine N-[N-[α-methyl-N-[(tricyclo-[3.3.1.1^3,7]dec-2-yloxy)carbonyl]-R-tryptophyl]-β-alanyl]] returned an inhibition constant Ki of 22 nM. With `C[C@](CNC(=O)CCc1ccccc1)(Cc1c[nH]c2ccccc12)NC(=O)OC1C2CC3CC(C2)CC1C3` (stereo partly shown) [Example 21] the figure was over 100 nM; with `C[C@](CNC(=O)c1ccccc1)(Cc1c[nH]c2ccccc12)NC(=O)OC1C2CC3CC(C2)CC1C3` (stereo partly drawn) [Example 20, Carbamic acid, [2-(benzoylamino)-1-(1H-indol-3-ylmethyl)-1-methylethyl]-, tricyclo[3.3.1.1^3,7]dec-2-yl ester, (R)-], 493 nM; with `CC(CNC(=O)OC1C2CC3CC(C2)CC1C3)(Cc1c[nH]c2ccccc12)C(=O)N[C@H](COC(=O)CCC(=O)O)Cc1ccccc1` (stereo partly shown) [Example 57], 93 nM.

As to `CC(CNCC(O)c1ccccc1)(Cc1c[nH]c2ccccc12)NC(=O)OC1C2CC3CC(C2)CC1C3` (stereo not shown) [Example 5, Tricyclo[3.3.1.1^3,7]dec-2-yl [1-[(2-hydroxy-2-phenyl-ethyl)amino]-3-(1H-indol-3-yl)-2-methylprop-2-yl]-carbamate], the Ki was determined as 220 nM.

With `CC1CCCCC1NC(=O)C(C)(Cc1c[nH]c2ccccc12)NC(=O)OC1C2CC3CC(C2)CC1C3` (stereo not shown) [Example 117, Tricyclo[3.3.1.1^3,7]dec-2-yl ester[1-(1H-indol-3-ylmethyl)-1-methyl-2[(2-methylcyclohexyl)amino]-2-oxoethyl]carbamate], the affinity corresponds to a Ki of 39 nM. Next, `C[C@](CC(=O)OCc1ccccc1)(Cc1c[nH]c2ccccc12)NC(=O)OC1C2CC3CC(C2)CC1C3` (stereo partly shown) [Example 17]: 17 nM; `N#CC(=Cc1c[nH]c2ccccc12)C(=O)NCCc1ccccc1` [Example 58]: 110 nM; `C[C@@](Cc1c[nH]c2ccccc12)(NC(=O)OC1C2CC3CC(C2)CC1C3)C(=O)NCCC(=O)N[C@H](CO)Cc1ccccc1` (relative stereo) [Example 24, Carbamic acid, [1-(1H-indol-3-ylmethyl)-2-[[3-[[1-hydroxymethyl)-2-iphenylethyl]amino]-3-oxopropyl]-amino]-1-methyl-2-oxoethyl]-, tricyclo[3.3.1.1^3,7]dec-2-ylester, [S-(R*,R*)]-]: 1100 nM.

The compound `C[C@](CN[C@H](CO)Cc1ccccc1)(Cc1c[nH]c2ccccc12)NC(=O)OC1C2CC3CC(C2)CC1C3` (stereo partly drawn) [Example 6, Tricyclo[3.3.1.1^3,7]dec-2-yl[R-(R*,S*)]-1-[[1(hydroxy-methyl)-2-phenylethyl]amino]-3-(1H-indol-3-yl)-2-methylprop-2-ylcarbamate] returned a Ki of 200 nM. With `C[C@](Cc1c[nH]c2ccccc12)(NC(=O)OC1C2CC3CC(C2)CC1C3)C(=O)NCCC(=O)N[C@H](Cc1ccccc1)C(N)=O` (stereo partly drawn) [Example 25, D-Phenylalanamide, α-methyl-N-[(tricyclo[3.3.1.1^3,7]-dec-2-yloxv)carbonyl]-D-tryotophyl-β-alanyl-] the figure was 550 nM.
